{"source": "patent US20080047904A1", "about": "“Treatment for Hydrostatic Testing Water” (priority 2004, published 2008)", "key": {"[1]": {"test_system": "Medinia beryllina larvae", "assay": "48-hour acute LC50 assay, static renewal", "assay_type": "in vivo", "method": "(§1) The test concentrations were prepared daily, and used immediately for test initiation and renewal. The total residual chlorine was measured in the highest concentration tested for each sample. The measured chlorine concentrations were used to calculate the estimated chlorine concentrations at the lower sample dilutions in these tests. Both range finder and definitive assays were conducted.\n(§2) A second set of experiments were conducted to mimic aged treated seawater. This attempted to model water that had been held in a pipeline for 24 hours, and then discharged. The experiments were identical to those described in the preceding paragraph, except that the highest test concentrations were prepared 24 hours before exposure to the test organisms. These same solutions were then used to prepare the 24 hour static renewal concentrations. The residual chlorine concentrations were measured when the test organisms were initially exposed to the toxic insult. These measurement were used to calculate the estimated chlorine concentrations at the lower sample dilutions in these tests, and after the static renewal at 24 hours."}, "[2]": {"test_system": "Mysidopsis bahia juveniles", "assay": "48-hour acute LC50 assay, static renewal", "assay_type": "in vivo", "method": "as §1, §2"}, "[3]": {"assay": "Reversion of phosphonate to orthophosphate by oxidizing biocides", "assay_type": "physicochemical", "details": "10 ppm oxidant (as Cl2) dosed, pH 9.1, 23° C.", "method": "The biocides studied consisted of WELLGUARD® 7030, bleach (NaOCl), and activated sodium bromide (NaOCl and NaBr). The WELLGUARD® 7030 and bleach were added directly. Activated sodium bromide was prepared in situ by introducing 20 ppm bromide ion to the stock solution followed by addition of bleach. The phosphonates used in this work consisted of AMP (aminomethylene phosphonic acid), HEDP (hydroxyethylidene diphosphonic acid), and PBTC (phosphonobutanetricarboxylic acid). These materials were commercial samples (Mayoquest 1320, 1500, and 2100, respectively) obtained from Callaway Chemical Co. (Smyrna, Ga.).\nSolutions consisting of 5 ppm scale inhibitor (as active phosphonate) in the presence of 10 ppm oxidant (as Cl2) were prepared as follows. To 900 mL deionized water were added appropriate stock solutions containing phosphonate, alkalinity (NaHCO3), and calcium hardness (CaCl2). The pH was adjusted to 9.1 with 5% aq. NaOH and diluted up to 1 L in a dark amber bottle. A dose of oxidant was added to achieve a residual of 10 ppm. The solutions were then periodically monitored for phosphonate reversion by determining the reversion to orthophosphate (Hach method 490). The oxidant residual was also periodically monitored using the DPD method (Hach method 80). All of this work was performed at room temperature (23° C.). […]"}, "[4]": {"details": "aged: highest test concentrations prepared 24 hours before exposure"}, "[5]": {"details": "fresh test solutions, static renewal at 24 hours"}}, "data": [{"compound": "[Na+].[O-]Cl", "note": "[Bleach, NaOCl]", "values": [{"measurement": "48-hour acute LC50", "setting": "[1]; [4]", "value": 0.50, "unit": "ppm as Cl2"}, {"measurement": "48-hour acute LC50", "setting": "[1]; [5]", "value": 0.57, "unit": "ppm as Cl2"}, {"measurement": "48-hour acute LC50", "setting": "[2]; [4]", "value": 0.42, "unit": "ppm as Cl2"}, {"measurement": "48-hour acute LC50", "setting": "[2]; [5]", "value": 0.34, "unit": "ppm as Cl2"}, {"measurement": "Cl2 (oxidant residual)", "setting": "[3]; 5 ppm AMP, 460 minutes", "value": 9.4, "unit": "ppm"}, {"measurement": "Cl2 (oxidant residual)", "setting": "[3]; 5 ppm HEDP, 400 minutes", "value": 10.6, "unit": "ppm"}]}]}
